Source: patent publication EP1004317A1, “REMEDIES FOR DISEASES ASSOCIATED WITH BONE RESORPTION” (CHUGAI SEIYAKU KABUSHIKI KAISHA, priority 1997, dated 1999)
Structures can show the parent of a compound that is named as a salt. Marks after values point to notes of the source that are not given here.

Experiments:
ovariectomized rats [1] = assay: Effect on ovariectomized rats: lumbar bone density; format: in vivo, Female Wistar-Imamichi rats; conditions: sham group = 100%, control OVX group 85.2%
Text: (§1) Female Wistar-Imamichi rats were subjected to ovariectomy (OVX). As test drugs, use was made of L-N-6-(1-iminoethyl)lysine hydrochloride (NIL) and S-ethylisothiourea (EIT) which are known as selective iNOS inhibitors. […] To confirm the validity of the test system, 17-β-estradiol (βE2) was also employed.
(§2) One day after OVX, the rats were divided into 7 groups each having 7 animals. The administration of the drug was started on the day 4 after OVX. As a control, a sham group (7 animals) was also employed. NIL was orally administered in a dose of 0.1 or 0.02 mg/kg (0.1 ml per 100 g of body weight) 5 times per week for 10 weeks.
In this graph, the data are expressed in "mean ± standard deviation". According to Dunnet's multiple comparison method, the statistically significant differences from the control ovariectomy group are expressed as follows: • **: p < 0.01, ***: p < 0.001.

ovariectomized rats [2] = assay: Effect on ovariectomized rats: biochemical parameter of urine (bone resorption marker); format: in vivo, Female Wistar-Imamichi rats; conditions: for D-pyr/Cre: OVX rats, urine collected after the final administration, mean ± standard deviation, n = 7, control OVX 11.83 ± 2.02
Text: as §1, §2
According to Dunnet's multiple comparison method, the statistically significant differences from the control ovariectomy group are expressed as follows: **: p < 0.01, ***: p < 0.001.
Number of animals/group = 7. Mean ± standard deviation.

nNOS/iNOS = conditions: cited from earlier work
eNOS/iNOS = conditions: cited from earlier work
cNOS/iNOS = conditions: cited from earlier work

SMILES	lumber bone density (ovariectomized rats [1]; EIT administration group, 24 hours after the final administration, p < 0.01) [%]	excretion of deoxypyridinoline (D-pyr) versus control OVX group (in words) (ovariectomized rats [2]; EIT administration group, no statistically significant difference)	D-pyr/Cre (ovariectomized rats [2]; dose 0.1 mg/kg)	nNOS/iNOS (NOS inhibitory activity expressed in the ratio of IC50) (nNOS/iNOS)	eNOS/iNOS (NOS inhibitory activity expressed in the ratio of IC50) (eNOS/iNOS)	lumber bone density (ovariectomized rats [1]; 0.02 mg/kg orally, 5 times per week for 10 weeks) [%]	lumber bone density (ovariectomized rats [1]; 0.1 mg/kg orally, 5 times per week for 10 weeks) [%]	excretion of deoxypyridinoline (D-pyr), acceleration versus control OVX group (in words) (ovariectomized rats [2]; 0.02 mg/kg, p < 0.01)	D-pyr/Cre (ovariectomized rats [2]; dose 0.02 mg/kg)	cNOS/iNOS (NOS inhibitory activity expressed in the ratio of IC50) (cNOS/iNOS)
CCSC(=N)N [EIT, S-ethylisothiourea]	92.6	a tendency toward decrease	9.95 ± 1.71	19.23	28.46	–	–	–	–	–
CC(=N)NCCCC[C@H](N)C(=O)O [NIL, L-N-6-(1-iminoethyl)lysine hydrochloride]	–	–	10.43 ± 1.15	–	–	86.8	90.2	significantly inhibited	8.70 ± 1.59**	28
C[C@]12CC[C@@H]3c4ccc(O)cc4CC[C@H]3[C@@H]1CC[C@@H]2O [βE2, 17-β-estradiol]	–	–	–	–	–	–	–	–	4.16 ± 1.45**	–
